# Measurements published in patent EP0231622B1, “Inhibition of the 5-lipoxygenase pathway” (priority 1985, dated 1987).
# Marks after values point to notes of the source that are not given here.
# Tests used:
# [1] = tested on: Arachidonic Acid-Induced Cellular Infiltration; test: Arachidonic acid-induced air pouch inflammation; type: in vivo, Lewis rats; conditions: 5 mg/kg; 3 hours after arachidonic acid
# Text: (§1) In the following Examples where mice were used, they were male Balb/c mice (20-28 g), and where rats were used, they were male Lewis rats (180-210 g). All mice and rats were obtained from Charles River Breeding Laboratories, Kingston, N.Y. Within a single experiment, mice and rats were sex and age matched.
# (§2) The compounds of Formula (IA) were used either as the free base or in the appropriate salt form. Levamisole was used as the hydrochloride salt. The compounds were homogenized in 0.5% tragacanth. Compounds were administered by gavage at the indicated dose in a final volume of 10 ml/kg. Nordihydroguaiaretic acid (NDGA) was solubilized in dimethylacetamide and diluted with olive oil for subcutaneous administration.
# (§3) Rats were shaved on the dorsal flank, and then injected subcutaneously one day later with 20 ml of air to form a defined pouch, by the method of Sedgwick et al., J. Pathology, 141, 483-495 (1983). The air pouch was reinflated as necessary over the next 6 days. To assay anti-inflammatory activity, animals were treated orally with test compound or vehicle (10 ml/kg) one hour before injection of 2.0 ml of a 2.0% carrageenan suspension containing 200 units/ml penicillin and 100 »g/ml streptomycin into the air pouch. In other experiments, 5 ml of 0.1% arachidonic acid in 0.2 M bicarbonate buffer was injected two hours after drug treatment. Animals were sacrificed using CO₂ three hours after instillation of irritant. The exudate was then aspirated from the pouch and neutrophil count and differential cell count were measured.
# [2] = tested on: Arachidonic Acid-Induced Inflammation of the Mouse Ear; test: Arachidonic acid-induced mouse ear inflammation; type: in vivo, Balb/c mice; conditions: Table 7; 10 mg/kg, p.o.
# Text: as §1, §2
# Arachidonic acid in acetone (2 mg/20 ul) was applied to the inner surface of the left ear. The thickness of both ears was then measured with a dial micrometer one hour after treatment, and the data were expressed as the change in thickness (10⁻³ cm) between treated and untreated ears.
# Test compounds were given orally in 0.5% tragacanth at the times indicated in the text prior to the topical application of arachidonic acid.
# Parenteral administration of compound was accomplished by subcutaneous injection of solution as indicated.
# [3] = tested on: Experimental Allergic Encephalomyelitis; test: Experimental allergic encephalomyelitis, hindleg paralysis; type: in vivo, Female Lewis rats; conditions: p.o. days 0-4, 7-11, 14-18
# Procedure: EAE is induced in Female (Charles River) Lewis rats by a single intradermal injection of 0.1 ml of an encephalitogenic emulsion consisting of equial parts of a 50% w/v homogenate of guinea pig spinal cord and mid-brain in 0.5% aqueous phenol and Freund's complete adjuvant (4 mg/ml killed, dried M. butyricum) into a hindpaw (left) footpad. […] Any animal which becomes paralyzed during the course of the experiment is considered to have developed EAE whether or not the paralysis is permanent. Test compounds are administered daily beginning on the day of injection, for 19 days, exclusive of days 5, 6 12 and 13. Drug activity is determined by comparing the indicidence of EAE (paralysis) of the treated group with a control (vehicle) group. The level of significant difference between the treated groups and control groups is determined by a Chi-square test using a 2x2 contingency table. Body weight changes from day 0 are also statistically compared to the control group using a Student "t" test.
# 5-LO = molecular target: T1, 5-LO (Rattus norvegicus, UniProt P12527); test: di-HETE production by RBL-1 high speed supernatant; type: biochemical; conditions: concentrations up to 10⁻⁴M; soluble extract of RBL-1 cells
# T1 construct: The activities of these enzymes in extracts of RBL-1 cells were assayed; host or cells: RBL-1 cells, disrupted by nitrogen cavitation; 10,000 x g or 100,000 x g supernatant
# T1 sequence (P12527 1-673): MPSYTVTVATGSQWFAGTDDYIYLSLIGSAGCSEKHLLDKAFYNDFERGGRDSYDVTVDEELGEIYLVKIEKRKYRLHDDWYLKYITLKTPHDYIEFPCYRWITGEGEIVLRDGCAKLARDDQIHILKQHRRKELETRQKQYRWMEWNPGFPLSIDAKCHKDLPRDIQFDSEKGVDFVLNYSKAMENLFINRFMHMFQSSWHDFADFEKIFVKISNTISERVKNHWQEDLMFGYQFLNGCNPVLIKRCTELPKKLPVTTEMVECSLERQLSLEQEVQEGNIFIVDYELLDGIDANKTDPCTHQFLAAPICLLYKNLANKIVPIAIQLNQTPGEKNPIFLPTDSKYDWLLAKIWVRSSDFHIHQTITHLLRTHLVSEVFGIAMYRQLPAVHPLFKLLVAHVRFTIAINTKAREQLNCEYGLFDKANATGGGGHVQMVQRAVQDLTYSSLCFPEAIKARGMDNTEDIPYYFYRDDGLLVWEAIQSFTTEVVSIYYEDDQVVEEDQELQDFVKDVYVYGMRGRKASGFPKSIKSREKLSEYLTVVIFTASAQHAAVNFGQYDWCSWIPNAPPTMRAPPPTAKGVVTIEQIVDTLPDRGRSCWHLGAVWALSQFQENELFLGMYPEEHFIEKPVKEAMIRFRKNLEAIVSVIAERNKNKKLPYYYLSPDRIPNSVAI
# Procedure: For in vitro experiments, compounds were dissolved at appropriate concentrations in ethanol or DMSO (dimethylsulfoxide) (final concentration <1.0%) and then diluted to final concentrations using the buffers indicated in the text.
# The activities of these enzymes in extracts of RBL-1 cells were assayed using the method of Jakschik and Lee, Nature, 287, 51-52 (1980). RBL-1 cells were obtained from the American Type Culture Collection (#CRL 1378) and were grown at 37°C (5% CO₂ in air) in spinner culture in MEM supplemented with 10% heat inactivated fetal calf serum. Harvested cells were washed with 50 mM sodium phosphate buffer, pH 7.0, containing 1 mM EDTA and 0.1% gelatin, resuspended in fresh buffer (5 x 10⁷ cells/ml) and disrupted by nitrogen cavitation using the Parr bomb at 750 psi for 10 min. The broken cell extract was then centrifuged at 10,000 x g for 20 minutes and the supernatant centrifuged at 100,000 x g for 60 minutes. Aliquots (0.25 mls) of the supernatant were preincubated with or without drugs for 10 min, after which 10 ul CaCl₂ (50 mM) was added and the reaction was initiated with 2.5 ul of 2.5 mM arachidonic acid-1-¹⁴C (final concentration was […]; specific activity 20,000 dpm/nmole). After incubation for 3 min at 37°C, the reaction was terminated by addition of 2 volumes (0.5 ml) ice cold acetone and the sample was allowed to deproteinize on ice for 10 min prior to centrifugation at 1,000 x g for 10 min. The deproteinized supernatant was adjusted to pH 3.5 with 2N formic acid and extracted with 2 volumes of ice cold ethyl acetate. The extracted samples were dried under argon, redissolved in ethyl acetate and applied to Whatman LK5D thin layer chromatography (TLC) plates which were developed using the A-9 solvent system [organic phase of ethyl acetate: 2,2,5-trimethylpentane:acetic acid: water (110:50:20:10)] described by Hamberg and Samuelsson, J. Biol. Chem., 241, 257-263 (1966). Arachidonic acid, 5-HETE, di-HETE and PGD₂ were quantified with a Berthold LB 2832 autoscanner.
# The 5-lipoxygenase and LTA₄ synthetase activities were further studied under the following conditions. An additional centrifugation of the RBL-1 supernatant was run at 100,000 x g for 60 min, to remove the particulate cyclooxygenase activity. Sample incubation was done under conditions similar to those described above, i.e., 2 mM CaCl₂ and 25 uM arachidonic acid-1-¹⁴C, however, with an incubation time of 5 min at […]. Under these conditions, only the 5-lipoxygenase pathway metabolites were detectable. The 5-HETE and di-HETEs were formed at a linear rate, and […] amounts of the arachidonic acid-1-¹⁴C substrate were utilized.
# [4] = tested on: Arachidonic Acid-Induced Rat Paw Edema; test: Arachidonic acid-induced rat paw swelling; type: in vivo, Lewis rats; conditions: 5 mg/kg, read at 2 hours
# Text: as §1, §2
# [5] = tested on: Polymorphonuclear Leukocytes; test: Mouse Carrageenan Peritonitis (PMN infiltration); type: in vivo, Balb/c mice; conditions: Table 3; 10 mg/kg, p.o.
# Text: as §1, §2
# Mice were pretreated with either the test compound or vehicle one hour before the intraperitoneal injection of a 1.0% carrageenan suspension in saline (0.2 ml/ mouse). Mice were sacrificed by cervical dislocation two hours after injection, and 3.0 ml of phosphate buffered saline, without Ca⁺⁺ or Mg⁺⁺, was injected into the peritoneum. Following massage, a 2.0 ml aliquot of the lavage fluid was removed, and the total cell count determined on a Coulter counter and differential cell count determined by microscopic examination of Giesma-stained slides.
# [6] = tested on: Carrageenan-Induced Cellular Infiltration; test: Carrageenan-induced air pouch inflammation; type: in vivo, Lewis rats; conditions: 5 mg/kg; 3 hours after carrageenan
# Text: as §1, §2, §3
Structure (SMILES),Cellular Infiltrate (Total x 10⁻⁶) MN [1] [x 10⁻⁶],Cellular Infiltrate (Total x 10⁻⁶) PMN [1] [x 10⁻⁶],Exudate Volume [1] [mL],Increase in Ear Thickness at 1 Hour (x 10⁻³ cm) [2] [x 10⁻³ cm],HINDLEG PARALYSIS - CUMULATIVE INCIDENCE DAY 9 TO 13 ([3]; 2 Mg/kg/day),HINDLEG PARALYSIS - CUMULATIVE INCIDENCE DAY 14 TO 18 ([3]; 2 Mg/kg/day),effect on eicosanoid formation (di-HETE production) (5-LO),Change in Paw Volume ([4]; one hour before arachidonic acid) [mL],(% Inhibition) of change in paw volume [4] [%],% Change [5],PMN x 10⁻⁵/ml (mean ± S.D.) [5] [x 10⁻⁵/ml],Cellular Infiltrate (Total x 10⁻⁶) MN [6] [x 10⁻⁶],Cellular Infiltrate (Total x 10⁻⁶) PMN [6],Exudate Volume [6] [mL],HINDLEG PARALYSIS - CUMULATIVE INCIDENCE DAY 9 TO 13 ([3]; 0.3 Mg/kg/day),HINDLEG PARALYSIS - CUMULATIVE INCIDENCE DAY 14 TO 18 ([3]; 0.3 Mg/kg/day)
COc1ccc2c(c1)c(CC(=O)O)c(C)n2C(=O)c1ccc(Cl)cc1 [Indomethacin],7.0 ± 6.4,5.0 ± 3.8,2.5 ± 0.8,24.4 ± 0.8,6/11,10/11,inactive,0.29 ± 0.06,0,-12^b %,8.20 ± 2.65,4.0 ± 0.8,2.8 ± 0.7^d x 10⁻⁶,2.0 ± 0.5,,
CN(Cc1cnc2nc(N)nc(N)c2n1)c1ccc(C(=O)N[C@@H](CCC(=O)O)C(=O)O)cc1 [METHOTREXATE],,,,,,,,,,,,,,,0/11**,0/11**
